Test systems include DU-145 prostate; HCT-116 colon; OVCAR-4 ovarian; SK-MEL-28 melanoma; SN12C renal; SNB-19 CNS; TK-10 renal; U251 CNS; UACC-62 melanoma; UO-31 renal.
Common to all, as to experiment: NCI-60 cell line screen, 48 h

Where “and” joins values, the source holds several entries; their conditions need not be identical. Equal entries are not always repeated.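 Test compounds were applied to cells in 96-well plates for 48 hours at 5 doses. Here, GI50 denotes the concentration required for 50% inhibition of growth. TGI: concentration producing complete growth inhibition.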 Bounds are passed on as bounds.

As to `COc1ccc(NC(=O)CC(=O)n2nc(-c3ccccc3)c(N=Nc3ccccc3C)c2-c2ccccc2)cc1`, the TGI is greater than 100 µM in the assay with DU-145 prostate; 47.9 µM in the assay on HCT-116 colon; 59.5 µM in the assay with OVCAR-4 ovarian; greater than 63.2 µM in the assay with SK-MEL-28 melanoma; greater than 88.5 µM with SN12C renal; greater than 69.7 µM in the assay on SNB-19 CNS. The TGI is 47.2 µM with TK-10 renal, 35.3 µM in the assay with U251 CNS, 46.6 µM with UACC-62 melanoma and greater than 92 µM in the assay on UO-31 renal.
For `O=[N+]([O-])c1ccc(NN=C2c3ccccc3Cc3ccccc32)c([N+](=O)[O-])c1`, the TGI in the assay with DU-145 prostate, in the assay with HCT-116 colon, in the assay with OVCAR-4 ovarian, in the assay on SK-MEL-28 melanoma, in the assay on SN12C renal and in the assay with SNB-19 CNS was greater than 100 µM in each case. The TGI in the assay with TK-10 renal, in the assay with U251 CNS, with UACC-62 melanoma and in the assay on UO-31 renal was greater than 100 µM throughout.
For the molecule `Cc1ccc(C)c(N2C(=O)C(=O)c3c(C)ccc(C)c32)c1`, the TGI was greater than 100 µM in the assay with DU-145 prostate; 32 µM in the assay on HCT-116 colon; greater than 100 µM in the assay on OVCAR-4 ovarian; greater than 100 µM in the assay with SK-MEL-28 melanoma; greater than 100 µM with SN12C renal; greater than 100 µM with SNB-19 CNS. In addition, the TGI in the assay with TK-10 renal was found to be 85 µM; in the assay with U251 CNS, 35.2 µM; with UACC-62 melanoma, 34.8 µM; in the assay on UO-31 renal, 55.3 µM.
Turning to `CNc1ccc(C(=O)CC(O)CCC(C)C2OC(=O)CC(O)CC(=O)CC(O)CC(O)CC(O)CC(O)CC3(O)CC(O)C(C(=O)NCCc4ccccn4)C(CC(OC4OC(C)C(O)C(N)C4O)/C=C/C=C/C=C/C=C\C=C/C=C/C=C/C2C)O3)cc1` (stereo not drawn), the GI50 with DU-145 prostate was 0.183 µM; in the assay on HCT-116 colon it was 0.741 µM; in the assay with OVCAR-4 ovarian, 0.868 µM; in the assay on SK-MEL-28 melanoma it was 0.161 µM; in the assay on SN12C renal, 0.961 µM; in the assay on SNB-19 CNS it was 14.8 µM. The GI50 was 0.128 µM with TK-10 renal, 2.11 µM with U251 CNS, 1.54 µM in the assay on UACC-62 melanoma and 0.551 µM in the assay with UO-31 renal. In addition, the TGI is 0.672 µM with DU-145 prostate; greater than 50 µM with HCT-116 colon; greater than 50 µM in the assay with OVCAR-4 ovarian; greater than 50 µM in the assay with SK-MEL-28 melanoma; 2.09 µM in the assay with SN12C renal; greater than 50 µM with SNB-19 CNS. For the same molecule, the TGI with TK-10 renal is 0.499 µM; in the assay on U251 CNS, greater than 40.3 µM; in the assay on UACC-62 melanoma, greater than 34.2 µM.
`O=C1C(Cl)=C(Nc2cccc(O)c2)C(=O)N1c1ccc(Cl)cc1Cl`: the GI50 is 23.1 µM in the assay on DU-145 prostate; 24.3 µM with HCT-116 colon; 43.2 µM in the assay on OVCAR-4 ovarian; 60.9 µM in the assay with SK-MEL-28 melanoma; 17.1 µM in the assay on SN12C renal; 29.9 µM with SNB-19 CNS. For the same molecule, the GI50 with TK-10 renal is greater than 100 µM; in the assay on U251 CNS, 19 µM; in the assay with UACC-62 melanoma it was 21.4 µM; in the assay on UO-31 renal, 50.7 µM. Also, the TGI with DU-145 prostate was 90.5 µM; with HCT-116 colon, 97.6 µM; in the assay with OVCAR-4 ovarian, greater than 100 µM; with SK-MEL-28 melanoma, greater than 100 µM; in the assay with SN12C renal, 35.9 µM; in the assay with SNB-19 CNS it was greater than 100 µM. For the same molecule, the TGI in the assay on TK-10 renal was greater than 100 µM; with U251 CNS, 66.7 µM; in the assay on UACC-62 melanoma, 57.7 µM; with UO-31 renal it was greater than 100 µM.
As to `CN1CCN(CCCN2c3ccccc3Sc3ccc(C(F)(F)F)cc32)CC1`, the GI50 with DU-145 prostate was 2.39 µM; with HCT-116 colon, 1.78 µM; in the assay with OVCAR-4 ovarian, 3.22 µM; in the assay on SN12C renal, 2.6 µM; in the assay on SNB-19 CNS, 1.86 µM; in the assay with TK-10 renal it was 1.78 µM and 4.01 µM and 11.6 µM. Besides, the GI50 in the assay with U251 CNS is 1.7 µM; in the assay on UACC-62 melanoma it was 1.57 µM; in the assay on UO-31 renal it was 2.31 µM. The TGI with DU-145 prostate is 5.48 µM and 23.3 µM and 30.1 µM; in the assay on HCT-116 colon, 3.26 µM and 17.5 µM and 20.3 µM; in the assay with OVCAR-4 ovarian, 12.5 µM and 21.6 µM and 26.6 µM; in the assay on SK-MEL-28 melanoma it was 3.27 µM and 3.46 µM and 3.58 µM; in the assay with SN12C renal it was 12.8 µM and 22.2 µM and 26.1 µM; in the assay with SNB-19 CNS it was 4.45 µM and 26.8 µM and 29.3 µM. Moreover, the TGI is 3.23 µM and 12.1 µM and 24.8 µM in the assay on TK-10 renal; 3.56 µM and 18.1 µM and 21.4 µM in the assay on U251 CNS; 3.08 µM and 4.34 µM and 3.91 µM in the assay on UACC-62 melanoma; 12 µM and 19.3 µM and 17.6 µM with UO-31 renal.
On to `CNC(=O)c1c(NC(=O)c2ccc(C(C)C)cc2)sc2c1CCC(=O)C2`, for which the GI50 in the assay on DU-145 prostate is 3.25 µM; in the assay on HCT-116 colon it was 0.0892 µM; in the assay on OVCAR-4 ovarian, 0.32 µM; with SK-MEL-28 melanoma it was 0.748 µM; with SN12C renal, 0.603 µM; in the assay with SNB-19 CNS, 0.453 µM. For the same molecule, the GI50 was 0.504 µM with TK-10 renal, 0.253 µM in the assay on U251 CNS, 0.453 µM in the assay on UACC-62 melanoma and 0.26 µM in the assay with UO-31 renal. Also, the TGI in the assay with DU-145 prostate worked out at 12.2 µM; in the assay with HCT-116 colon it was 1.34 µM; in the assay with OVCAR-4 ovarian, 1.16 µM; in the assay on SK-MEL-28 melanoma it was 3.39 µM; in the assay with SN12C renal, 2.38 µM; in the assay on SNB-19 CNS it was 5.71 µM. The TGI in the assay on TK-10 renal amounted to 13 µM; with U251 CNS, 1.42 µM; in the assay with UACC-62 melanoma, 1.94 µM; with UO-31 renal it was 1.1 µM.
Regarding `Cc1csc(-c2ccc3c(c2)COC3(CCCN(C)C)c2ccc(F)cc2)c1` (stereo not drawn), the GI50 with DU-145 prostate is 1.91 µM; in the assay with HCT-116 colon it was 1.86 µM; with OVCAR-4 ovarian, 1.67 µM; in the assay on SK-MEL-28 melanoma, 1.77 µM; in the assay with SN12C renal, 1.79 µM; in the assay on SNB-19 CNS it was 1.75 µM. In addition, the GI50 was 1.83 µM in the assay on TK-10 renal, 1.85 µM in the assay on U251 CNS, 1.78 µM in the assay on UACC-62 melanoma and 1.46 µM with UO-31 renal. The TGI in the assay on DU-145 prostate was determined as 3.56 µM; in the assay on HCT-116 colon it was 3.54 µM; with OVCAR-4 ovarian it was 3.11 µM; with SK-MEL-28 melanoma it was 3.3 µM; in the assay with SN12C renal, 3.4 µM; with SNB-19 CNS, 3.31 µM. Moreover, the TGI in the assay with TK-10 renal is 3.72 µM; in the assay with U251 CNS, 3.76 µM; in the assay on UACC-62 melanoma it was 3.36 µM; with UO-31 renal it was 2.79 µM.
For `O=C(c1ccncc1)N1CCN(C2=NS(=O)(=O)c3ccccc3N2c2ccccc2)CC1`, the GI50 is 7.77 µM with DU-145 prostate; 14.5 µM in the assay with HCT-116 colon; 30.6 µM with OVCAR-4 ovarian; 15.6 µM with SK-MEL-28 melanoma; 7.55 µM in the assay with SN12C renal; 15 µM with SNB-19 CNS. Besides, the GI50 in the assay on TK-10 renal is 31.5 µM; with U251 CNS it was 8.32 µM; in the assay on UACC-62 melanoma, 7.99 µM; in the assay on UO-31 renal it was 36.4 µM. Besides, the TGI in the assay on DU-145 prostate is greater than 100 µM; in the assay with HCT-116 colon, 33.3 µM; in the assay with OVCAR-4 ovarian, greater than 100 µM; in the assay with SK-MEL-28 melanoma, 38.7 µM; with SN12C renal, greater than 100 µM; in the assay on SNB-19 CNS, 44.9 µM. Further, the TGI in the assay on TK-10 renal is 77.1 µM; in the assay with U251 CNS, greater than 100 µM; in the assay with UACC-62 melanoma it was 21.6 µM; in the assay with UO-31 renal, greater than 100 µM.

(Values after PubChem BioAssay (NCI).)
